Literature values in US20260256788A1, “COMPOSITIONS COMPRISING MELATONIN, 5-FLUOROURACIL AND DIMETHYL SULFOXIDE FOR USE IN THE TREATMENT OF ACTINIC KERATOSIS” (RepoCeuticals A/S, priority 2023, published 2026).

Assays:
[1] = not given; remark: listed apart in the source

Compound	solubility in water	solubility in DMSO ([1]; in DMSO)	solubility of melatonin in DMSO ([1]; in DMSO at room temperature) [mg/mL]
O=c1[nH]cc(F)c(=O)[nH]1 [5-FU, 5-fluoro-2,4(1H;3H)-pyrimidinedione]	only sparingly soluble	very soluble	
COc1ccc2[nH]cc(CCNC(C)=O)c2c1 [melatonin, N-acetyl-5-methoxytryptamine]			≥ 232
